{"source": "paper PMC2628307", "about": "(Journal of the American Chemical Society, 2008)", "key": {"PP1γ [1]": {"target": "T1, PP1γ (Homo sapiens, UniProt P36873)", "T1 sequence (P36873 whole entry)": "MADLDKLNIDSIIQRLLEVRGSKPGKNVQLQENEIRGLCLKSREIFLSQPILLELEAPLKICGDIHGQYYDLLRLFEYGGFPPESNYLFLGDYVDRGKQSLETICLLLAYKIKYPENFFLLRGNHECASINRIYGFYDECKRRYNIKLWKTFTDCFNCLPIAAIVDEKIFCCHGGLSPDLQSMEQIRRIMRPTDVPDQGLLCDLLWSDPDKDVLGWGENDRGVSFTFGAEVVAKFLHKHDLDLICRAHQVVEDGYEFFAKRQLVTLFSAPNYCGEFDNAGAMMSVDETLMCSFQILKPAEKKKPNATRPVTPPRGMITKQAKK", "format": "biochemical", "details": "for activity as PP1γ substrate: pH 8"}, "PP1γ [2]": {"target": "T1, PP1γ"}, "PP1 [3]": {"target": "PP1", "details": "tighter binding peptide substrate; cited from earlier work"}, "alkaline phosphatase": {"target": "alkaline phosphatase", "details": "cited from earlier work"}, "PP1 [4]": {"target": "PP1 (Homo sapiens, UniProt P36873)", "sequence (P36873 whole entry)": "as above", "assay": "Kinetic isotope effects of PP1-catalyzed hydrolysis", "format": "biochemical", "details": "25 °C, pH 7.0"}, "[5]": {"details": "25 °C; cited from earlier work"}, "PP1 H125A mutant": {"target": "PP1 H125A mutant (Homo sapiens, UniProt P36873, H125A)", "sequence (P36873 2-323 H125A)": "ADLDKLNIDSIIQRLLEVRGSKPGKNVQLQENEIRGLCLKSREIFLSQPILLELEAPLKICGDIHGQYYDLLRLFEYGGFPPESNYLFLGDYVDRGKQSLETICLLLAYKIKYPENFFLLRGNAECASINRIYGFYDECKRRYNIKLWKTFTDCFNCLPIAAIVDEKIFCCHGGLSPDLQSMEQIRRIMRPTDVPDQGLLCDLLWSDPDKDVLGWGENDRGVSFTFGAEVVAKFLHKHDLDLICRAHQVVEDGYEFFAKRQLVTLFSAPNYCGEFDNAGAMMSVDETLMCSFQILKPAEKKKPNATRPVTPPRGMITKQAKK", "assay": "4NPP hydrolysis by PP1 H125A mutant", "format": "biochemical"}, "[6]": {"system": "native PTPs YopH, VHR, and PTP1", "details": "cited from earlier work"}, "[7]": {"details": "Dianion H2O attack, 95° C; cited from earlier work"}, "calcineurin": {"system": "calcineurin", "details": "cited from earlier work"}}, "note": "Where “and” joins values, the source holds several entries; their conditions need not be identical. Identical values can stand only once. Counter-ions that a name gives are not always drawn. Like-named read-outs stand apart in the source and are kept apart here."}
{"smiles": "O=[N+]([O-])c1ccc(OS(=O)(=O)O)cc1", "note": "[4-nitrophenyl sulfate]", "values": [{"measurement": "activity as PP1γ substrate", "setting": "PP1γ [1]", "value": "little activity"}]}
{"smiles": "O=[N+]([O-])c1ccc(OP(O)(O)=S)cc1", "note": "[4-nitrophenyl thiophosphate]", "values": [{"measurement": "activity as PP1γ substrate", "setting": "PP1γ [1]", "value": "little activity"}]}
{"smiles": "O=P(O)(O)O", "note": "[inorganic phosphate]", "values": [{"measurement": "Ki", "setting": "PP1γ [2]; pH 8, 4NPMP hydrolysis, compared with Ki for the 4NPP reaction", "value": "same Ki"}, {"measurement": "Ki", "setting": "PP1γ [2]; pH 8.0, 4NPP hydrolysis, competitive inhibition, equation 2", "value": "1200 ± 200", "unit": "µM"}, {"measurement": "Ki", "setting": "PP1 [3]", "value": "1600 ± 900", "unit": "µM"}, {"measurement": "Ki", "setting": "alkaline phosphatase", "value": "~1", "unit": "µM"}]}
{"smiles": "O=[N+]([O-])c1ccc(O)cc1", "note": "[4-nitro, p-nitrophenol]", "values": [{"measurement": "pKa", "setting": "physchem", "value": 7.01}]}
{"smiles": "COP(=O)(O)Oc1ccc([N+](=O)[O-])cc1", "note": "[4-nitrophenyl methyl phosphate]", "values": [{"measurement": "activity as PP1γ substrate", "setting": "PP1γ [1]", "value": "significant activity"}]}
{"smiles": "O=[N+]([O-])c1ccc(OP(=O)(O)O)cc1", "note": "[4NPP, 4-nitrophenyl phosphate]", "values": [{"measurement": "^18knonbridge", "setting": "PP1 [4]", "value": "0.9959 (4)"}, {"measurement": "^18knonbridge per atom", "setting": "PP1 [4]", "value": "0.9986 (4)"}, {"measurement": "pseudo-first order rate constant of water reaction of the dianion", "setting": "[5]", "value": "2e-09", "unit": "s⁻¹"}, {"measurement": "change in rate of hydrolysis with viscosigens", "setting": "PP1γ [1]; 20% sucrose or glycerol", "value": "no changes"}, {"measurement": "activity for 4NPP hydrolysis", "setting": "PP1 H125A mutant", "value": "no detectable activity"}, {"measurement": "^15k", "setting": "[6]", "value": "0.9999-1.0001"}, {"measurement": "^18knonbridge", "setting": "[6]", "value": "0.9998-1.0003 and 1.0118-1.0152"}, {"measurement": "^18knonbridge per atom", "setting": "[6]", "value": "0.9999-01.0001"}, {"measurement": "^15k", "setting": "[7]", "value": "1.0028(2)"}, {"measurement": "^18knonbridge", "setting": "[7]", "value": "0.9994 (5)"}, {"measurement": "^18knonbridge per atom", "setting": "[7]", "value": "0.9998 (5)"}, {"measurement": "^18(V/K)nonbridge", "setting": "calcineurin; calcineurin with Mg^2+ at the active site", "value": 0.9910}, {"measurement": "^18(V/K)nonbridge", "setting": "calcineurin; calcineurin with Mn^+2 at the active site", "value": 0.9942}]}
